From patent US20160038526A1, “TREATMENT OF PROSTATE CANCER” (THOMAS JEFFERSON UNIVERSITY, priority 2012, published 2016)

Columns and labels:
[1] = system: Stat5a/b; experiment: Electrophoresis mobility shift assay (EMSA) of Stat5a/b binding to DNA, nuclear extracts of transfected COS-7 cells; type: cell-based; settings: 2 hours pretreatment, 10 nmol/L Prl 30 minutes
Protocol: COS-7 cells were transfected with plasmids expressing Stat5a (pStat5a) and PrlR (pPrlR) using FuGENE6. After 24 hours, the cells were starved in serum-free medium for 16 hours and then pretreated with N6BAP or the control compound C5 for 2 hours and the stimulated with 10 nmol/L Prl for 30 minutes. Nuclear extracts were prepared and a gel EMSA was performed as previously described (Ahonen et al., Endocrinology 2002, 143:228-238; Nevalainen et al., Mol Endocrinol 2002, 16:1108-1124). Double stranded Stat5a/b-binding oligonucleotide probe (upper strand sequence: 5′-[…]-3′) (Boucheron et al., J Biol Chem (1998), 273:33936-33941) were end-labeled with 50 μCi of γ-^32P-ATP (5000 ci/mMol) and incubated (1 ng per reaction) with 10 μl of nuclear extracts in the final volume of 20 μl of the binding mixture (50 mM TrisHCl, pH 7.4, 25 mM MgCl2, 500 mM KCl, 5 mM DTT, 50% glycerol) and 1 μl of 1 mg/ml Poly d[(I:C)]. For a supershift control, the samples were preincubated with anti-Stat5a or anti-Stat5b antibody (Millipore) or NRS as indicated. Polyacrylamide gels (5%) containing 5% glycerol and 0.25×Tris-borate/EDTA were pre-run in 0.25×Tris-borate/EDTA buffer at 4-10° C. for 2-4 h at 300V. The gels were run at room temperature for 2.33 hours at 200 V, dried and exposed to x-ray films (X-Omat, Eastman Kodak Co.). […]

[2] = system: CWR22Rv1 xenograft tumor; experiment: CWR22Rv1 human prostate tumor xenograft in nude mice: tumor growth, viable cells, TUNEL; type: in vivo; settings: nude mice, 25, 50 or 100 mg/kg intraperitoneal daily for 10 days
Protocol: 1.5×10^7 CWR22Rv1 cells in 0.1 ml RPMI 1640 medium were mixed with 0.1 ml of Matrigel (BD Bioscience, Palo Alto, Calif.), and were inoculated subcutaneously (s.c.) into one flank per mouse. Established tumors were randomly distributed into five groups (ten mice for each group) with similar average size. N6BAP was dissolved in 0.3% hydroxycellulose (HPC). Mice were treated daily for 10 days by intraperitoneal injection with 0.2 ml of N6BAP at 25 mg/kg, 50 mg/kg or 100 mg/kg body weight, or with 0.2 ml 0.3% HPC solution, or no treatment for control. Tumor sizes were measured three times per week. Tumor volumes were calculated using the following formula: 3.14×length×width×depth/6. Tumor growth rates were calculated, and percent changes in tumor volume of each group were presented. […] Individual tumors are represented as columns.
Tumor sections were hematoxylin-eosin stained to assess the loss of viable tumor cells. The results are shown in FIG. 12A, showing the loss of live epithelial cells with the […] N6BAP-treated CWR22Rv1 xenograft tumors vs. controls.
In situ end labeling of fragmented DNA was carried out according to the terminal deoxyribonucleotidyl transferse (TdT)-mediated biotin-16-dUTP nick-end labeling (TUNEL) assay to determine that cells within the CWR22Rv1 tumors were undergoing apoptosis. The assay was performed according to the In situ Cell Death Detection Kit from Roche Applied Science. Briefly, rehydrated deparaffinated tissue sections from the xenograft tumors were treated by Proteinase K followed by 3% H2O2 at room temperature. […] Nucleotides incorporated into fragmented DNA were detected after incubation with anti-fluorescein antibody conjugated with peroxidase followed by visualization with 3,3-diaminobenzidine as a chromogen and methyl green as a counterstain. […] Cell viability indexes were determined by counting alive cells per total number of cells per view established in the no treatment group. TUNEL indexes were determined by counting epithelial cells with TUNEL-positive cells per total number of epithelial cells per view. […]

[3] = system: LNCaP cells; experiment: Cell viability, MTS metabolic activity assay, LNCaP; type: cell-based, human; settings: 72 hours
Protocol: (§1) CWR22Rv1 prostate cancer cells were treated with N6BAP or the control compound C5 (Ctrl) at 25 μM concentration or vehicle for 24 h. Following trypan blue exclusion, the attached viable vs. de-attached dead cells were counted. […] The bars indicate mean±SD of triplicate wells. In another assay, CWR22Rv1, LNCaP and DU145 cells were treated with N6BAP, the control compound C5 (Ctrl) or vehicle at indicated concentrations. The fraction of alive cells was determined by MTS ([…]) metabolic activity assay (CellTiter 96® AQueous Assay kit). The results are shown in FIGS. 9C, 9D and 9E, respectively.

[4] = system: Stat5a/b; experiment: Clinical prostate cancers ex vivo in explant organ cultures: nuclear Stat5a/b immunohistochemistry; type: cell-based, human; settings: 7 days, N6BAP 5, 10, 25, 50 and 100 μM; C5 100 m
Protocol: The specimens comprised de-identified excess tissue obtained after the completion of pathology diagnosis. A zero-sample prior to organ culture was formalin-fixed for each individual prostate cancer for the analysis of the nuclear Stat5a/b status. The prostate organ cultures were performed as described earlier (Ahonen et al., Endocrinology (2002), 143:228-238). Briefly, prostate cancer tissue was cut into approximately 1 mm^3 pieces in a plain culture medium and transferred onto lens papers lying on stainless steel grids in petri dishes. The medium was phenol-free medium 199 with Earle's salts (Sigma) containing dialyzed 5% fetal calf serum, G-penicillin (100 IU/ml), streptomycin sulfate ([…]), and glutamine (100 μg/ml). […] Tissue explants were cultured in a medium containing the N6BAP or control compound C5 at indicated concentrations (C5: […]; N6BAP: 5, 10, 25, 50 and 100 μM) 7 days, after which the explants were fixed in formalin and analyzed for Stat5a/b activation and viability of prostate cancer epithelial compartment. Viability of the epithelial cells in the prostate cancer explants at the end of the cultures were scored by counting the viable epithelial cells per explant.
Nuclear Stat5a/b indexes were determined by counting the Stat5-positive cells per 500 epithelial cells in the cultured explants in each treatment group.

[5] = system: HepG2 (hepatocellular); experiment: Cell viability assay, HepG2; type: cell-based
[6] = system: prostate cancer cells; experiment: Induction of apoptotic death of prostate cancer cells (summary of FIGS. 9A-9E); type: cell-based, human
Protocol: as §1

Structure (SMILES): O=P(O)(O)OC[C@H]1O[C@@H](n2cnc3c(NCc4ccccc4)ncnc32)[C@H](O)[C@@H]1O [N6BAP, N^6-benzyladenosine-5′-monophosphate]
- binding of Stat5a/b to DNA (EMSA) [1]: inhibited binding of Stat5a/b to DNA
- apoptotic epithelial cells in tumor xenografts (TUNEL) [2]: increased apoptotic epithelial cells
- live epithelial cells in tumor xenografts (hematoxylin-eosin staining) [2]: decreased the number of live epithelial cells
- xenograft tumor growth (tumor volume) [2]: inhibited the growth of the xenograft tumor in a dose-dependent manner
- number of viable cells [3]: decreases the number of viable cells
- nuclear Stat5 expression in explant organ cultures [4]: reduced the levels of nuclear Stat5 expression
- cell viability [5]: did not affect the viability
- treatment time required to induce prostate cancer cell apoptosis [6]: at least 48 hours
- apoptotic death of prostate cancer cells ([6]; CWR22Rv1, LNCaP, DU145): induces apoptotic death of prostate cancer cells
